According to ChEMBL document CHEMBL5120915, “Synthesis of Sulfur-Containing Analogues of Hedychenone, a Labdane Diterpenoid from Hedychium spicatum” (J Nat Prod, 2022):
Values after ≈ are worked out from the molar mass of the structure shown.

Target: not listed separately
Experiment: Inhibition of Saccharomyces cerevisiae alpha-glucosidase using pNPG as substrate preincubated for 5 mins followed by pNPG addition and measured after 10 mins by microplate reader method
Conditions: not given

Row | SMILES | IC50
1 | CSc1ccc(Sc2occc2/C=C/[C@H]2C(C)=CC(=O)[C@H]3C(C)(C)CCC[C@]23C)cc1 | 9.7 µg/mL (≈ 21.4 µM)
2 | CC1=CC(=O)[C@H]2C(C)(C)CCC[C@]2(C)[C@H]1/C=C/c1ccoc1Sc1ccccc1C | 9.7 µg/mL (≈ 23.1 µM)
3 | CC1=CC(=O)[C@H]2C(C)(C)CCC[C@]2(C)[C@H]1/C=C/c1ccoc1Sc1ccc(F)cc1 | 9.7 µg/mL (≈ 22.8 µM)
4 | CC1=CC(=O)[C@H]2C(C)(C)CCC[C@]2(C)[C@H]1/C=C/c1ccoc1Sc1ccccc1F | 12.15 µg/mL (≈ 28.6 µM)
5 | COc1ccccc1Sc1occc1/C=C/[C@H]1C(C)=CC(=O)[C@H]2C(C)(C)CCC[C@]12C | 11.82 µg/mL (≈ 27.1 µM)
6 | CC1=CC(=O)[C@H]2C(C)(C)CCC[C@]2(C)[C@H]1/C=C/c1ccoc1Sc1cccc(F)c1 | 9.7 µg/mL (≈ 22.8 µM)
7 | CC1=CC(=O)[C@H]2C(C)(C)CCC[C@]2(C)[C@H]1/C=C/c1ccoc1Sc1ccccc1Br | 13.01 µg/mL (≈ 26.8 µM)
8 | CC1=CC(=O)[C@H]2C(C)(C)CCC[C@]2(C)[C@H]1/C=C/c1ccoc1Sc1cccc(C)c1 | 9.7 µg/mL (≈ 23.1 µM)
9 | CC1=CC(=O)[C@H]2C(C)(C)CCC[C@]2(C)[C@H]1/C=C/c1ccoc1Sc1ccc(Br)cc1 | 9.7 µg/mL (≈ 20 µM)
10 | CC1=CC(=O)[C@H]2C(C)(C)CCC[C@]2(C)[C@H]1/C=C/c1ccoc1Sc1cccc(Br)c1 | 12.23 µg/mL (≈ 25.2 µM)
11 | CC1=CC(=O)[C@H]2C(C)(C)CCC[C@]2(C)[C@H]1/C=C/c1ccoc1Sc1ccc2ccccc2c1 | 9.7 µg/mL (≈ 21.2 µM)
12 | CC1=CC(=O)[C@H]2C(C)(C)CCC[C@]2(C)[C@H]1/C=C/c1ccoc1Sc1ccccc1 | 13.17 µg/mL (≈ 32.4 µM)
13 | C[C@H]1O[C@H](O[C@H]2[C@H](O)[C@@H](O)[C@@H](O[C@H]3[C@H](O)[C@@H](O)C(O)O[C@@H]3CO)O[C@@H]2CO)[C@H](O)[C@@H](O)[C@@H]1N[C@H]1C=C(CO)[C@@H](O)[C@H](O)[C@H]1O (stereo partly specified) [ACARBOSE] | 3.95 µg/mL (≈ 6.12 µM)

Continued, values first:

Row | IC50 | SMILES
14 | 9.7 µg/mL (≈ 21.3 µM) | CC1=CC(=O)[C@H]2C(C)(C)CCC[C@]2(C)[C@H]1/C=C/c1ccoc1SCc1ccc(Cl)cc1
15 | 9.7 µg/mL (≈ 22 µM) | CC1=CC(=O)[C@H]2C(C)(C)CCC[C@]2(C)[C@H]1/C=C/c1ccoc1Sc1ccc(Cl)cc1
16 | 9.7 µg/mL (≈ 22 µM) | CC1=CC(=O)[C@H]2C(C)(C)CCC[C@]2(C)[C@H]1/C=C/c1ccoc1Sc1cccc(Cl)c1
17 | 9.7 µg/mL (≈ 20.4 µM) | CC1=CC(=O)[C@H]2C(C)(C)CCC[C@]2(C)[C@H]1/C=C/c1ccoc1Sc1ccc(Cl)cc1Cl
18 | 9.7 µg/mL (≈ 22 µM) | CC1=CC(=O)[C@H]2C(C)(C)CCC[C@]2(C)[C@H]1/C=C/c1ccoc1Sc1ccccc1Cl
19 | 9.7 µg/mL (≈ 22.1 µM) | CC1=CC(=O)[C@H]2C(C)(C)CCC[C@]2(C)[C@H]1/C=C/c1ccoc1SCc1ccc(F)cc1
20 | 13.34 µg/mL (≈ 31.7 µM) | CC1=CC(=O)[C@H]2C(C)(C)CCC[C@]2(C)[C@H]1/C=C/c1ccoc1SCc1ccccc1

Tested on: Staphylococcus aureus
Experiment: Antibacterial activity against Staphylococcus aureus MTCC 96 assessed as zone of inhibition preincubated for 2 to 3 hrs followed by 12 to 24 hrs incubation at aerobic condition by well diffusion method
Format: functional
Conditions: time 14-27 hrs

Row | SMILES | inhibition zone (IZ)
21 | CC1=CC(=O)[C@H]2C(C)(C)CCC[C@]2(C)[C@H]1/C=C/c1ccoc1Sc1cccc(Cl)c1 | 6 mm
